The text below walks through data of patent publication US9249129B2, “Morpholino substituted urea derivatives as mTOR inhibitors” (CELLZOME LIMITED, priority 2010, dated 2016).

Holding throughout (assay): kinobeads assay with mass spectrometry detection of kinases (kinase selectivity profile)
Holding throughout (format): binding

Experiment [1] deals with T1, kinases (kinome) (Homo sapiens, UniProt Q99683).
T1 construct: determined in kinobeads assays with mass spectrometry detection of kinases as described previously; endogenous in cells; host or cells: cell lysate
T1 sequence (Q99683 1-1374): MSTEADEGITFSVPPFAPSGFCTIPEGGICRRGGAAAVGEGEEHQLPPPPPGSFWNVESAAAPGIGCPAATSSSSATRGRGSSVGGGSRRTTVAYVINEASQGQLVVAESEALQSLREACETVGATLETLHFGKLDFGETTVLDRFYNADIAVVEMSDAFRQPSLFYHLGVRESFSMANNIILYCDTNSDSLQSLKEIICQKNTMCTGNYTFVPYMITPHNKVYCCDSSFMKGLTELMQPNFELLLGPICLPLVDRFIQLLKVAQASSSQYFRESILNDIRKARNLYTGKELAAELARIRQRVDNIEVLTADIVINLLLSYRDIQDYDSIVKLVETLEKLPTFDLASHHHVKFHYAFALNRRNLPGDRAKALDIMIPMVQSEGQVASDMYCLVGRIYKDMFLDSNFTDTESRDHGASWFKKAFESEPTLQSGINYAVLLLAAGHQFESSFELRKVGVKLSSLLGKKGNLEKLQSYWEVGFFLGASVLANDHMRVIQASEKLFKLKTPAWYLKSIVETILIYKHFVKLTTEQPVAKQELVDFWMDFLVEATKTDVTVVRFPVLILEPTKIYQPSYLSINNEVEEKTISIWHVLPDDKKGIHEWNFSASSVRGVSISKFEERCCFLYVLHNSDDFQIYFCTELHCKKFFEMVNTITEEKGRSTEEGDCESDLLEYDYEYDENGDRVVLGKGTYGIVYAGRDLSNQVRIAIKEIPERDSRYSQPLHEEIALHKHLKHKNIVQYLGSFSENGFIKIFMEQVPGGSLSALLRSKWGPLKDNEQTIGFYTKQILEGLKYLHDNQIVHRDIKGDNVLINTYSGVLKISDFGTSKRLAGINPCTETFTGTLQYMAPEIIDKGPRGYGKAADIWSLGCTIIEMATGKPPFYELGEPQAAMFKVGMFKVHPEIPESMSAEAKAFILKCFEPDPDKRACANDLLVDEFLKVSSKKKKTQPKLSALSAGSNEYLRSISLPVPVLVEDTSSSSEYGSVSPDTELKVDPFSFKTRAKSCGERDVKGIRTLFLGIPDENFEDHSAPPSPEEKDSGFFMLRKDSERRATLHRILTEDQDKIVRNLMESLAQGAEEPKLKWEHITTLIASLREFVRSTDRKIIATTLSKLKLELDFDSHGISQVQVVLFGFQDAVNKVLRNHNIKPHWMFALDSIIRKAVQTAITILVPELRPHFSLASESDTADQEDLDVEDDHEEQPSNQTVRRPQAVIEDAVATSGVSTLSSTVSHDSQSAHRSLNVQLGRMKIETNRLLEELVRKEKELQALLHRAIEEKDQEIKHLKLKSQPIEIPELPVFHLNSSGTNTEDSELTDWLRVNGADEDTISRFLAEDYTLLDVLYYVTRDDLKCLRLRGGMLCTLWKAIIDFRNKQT
The note with it: MAP3K5 (STE), IPI00412433. From the text:
(§1) The protein kinase complement of the human genome (the kinome) was described previously (Manning et al., 2002. Science 298(5600):1912-1934). Sequence accession numbers are defined by the International Protein Index (IPI) (Kersey et al., 2004. Proteomics 4(7):1985-1988).

Experiment [2] addresses T2, kinases (kinome) (Homo sapiens, UniProt Q9P2K8).
T2 construct: determined in kinobeads assays with mass spectrometry detection of kinases as described previously; endogenous in cells; host or cells: cell lysate
The note with it: GCN2 (Other), IPI00163851.
Description: as §1

The target in experiment [3] is T3, kinases (kinome) (Homo sapiens, UniProt Q15759).
T3 construct: determined in kinobeads assays with mass spectrometry detection of kinases as described previously; endogenous in cells; host or cells: cell lysate
T3 sequence (Q15759 whole entry): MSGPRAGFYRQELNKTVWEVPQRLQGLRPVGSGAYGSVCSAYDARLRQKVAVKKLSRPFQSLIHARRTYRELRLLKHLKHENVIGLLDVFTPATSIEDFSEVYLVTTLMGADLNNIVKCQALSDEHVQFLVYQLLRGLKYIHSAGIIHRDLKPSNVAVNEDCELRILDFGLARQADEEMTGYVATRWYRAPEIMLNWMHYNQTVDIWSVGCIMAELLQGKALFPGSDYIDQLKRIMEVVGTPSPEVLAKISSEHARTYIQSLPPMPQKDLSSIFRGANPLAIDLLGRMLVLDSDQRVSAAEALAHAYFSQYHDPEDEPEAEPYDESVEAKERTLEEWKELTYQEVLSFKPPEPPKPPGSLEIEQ
The settings on record: p38b (CMGC), IPI00019473.
Description: as §1

Experiment [4] addresses T4, kinases (kinome) (Homo sapiens, UniProt P43403).
T4 construct: determined in kinobeads assays with mass spectrometry detection of kinases as described previously; endogenous in cells; host or cells: cell lysate
T4 sequence (P43403 1-619): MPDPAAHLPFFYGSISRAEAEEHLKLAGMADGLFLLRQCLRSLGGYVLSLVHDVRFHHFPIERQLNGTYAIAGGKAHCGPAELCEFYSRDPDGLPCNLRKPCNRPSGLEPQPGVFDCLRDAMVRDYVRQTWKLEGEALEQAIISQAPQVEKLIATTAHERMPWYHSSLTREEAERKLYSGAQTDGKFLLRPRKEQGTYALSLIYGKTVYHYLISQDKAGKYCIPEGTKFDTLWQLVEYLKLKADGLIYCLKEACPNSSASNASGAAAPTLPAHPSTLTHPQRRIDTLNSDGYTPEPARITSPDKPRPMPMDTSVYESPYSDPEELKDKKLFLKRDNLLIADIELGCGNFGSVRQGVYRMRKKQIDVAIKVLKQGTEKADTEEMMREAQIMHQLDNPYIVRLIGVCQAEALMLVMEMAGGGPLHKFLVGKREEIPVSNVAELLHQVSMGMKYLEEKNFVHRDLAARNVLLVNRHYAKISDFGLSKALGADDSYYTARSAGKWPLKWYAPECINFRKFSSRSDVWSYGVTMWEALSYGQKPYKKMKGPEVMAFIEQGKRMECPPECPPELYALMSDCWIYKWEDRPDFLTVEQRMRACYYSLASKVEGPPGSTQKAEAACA
The note with it: ZAP70 (TK), IPI00329789.
Description: as §1

For experiment [5], the target named is T5, kinases (kinome) (Homo sapiens, UniProt P49759).
T5 construct: determined in kinobeads assays with mass spectrometry detection of kinases as described previously; endogenous in cells; host or cells: cell lysate
T5 sequence (P49759 whole entry): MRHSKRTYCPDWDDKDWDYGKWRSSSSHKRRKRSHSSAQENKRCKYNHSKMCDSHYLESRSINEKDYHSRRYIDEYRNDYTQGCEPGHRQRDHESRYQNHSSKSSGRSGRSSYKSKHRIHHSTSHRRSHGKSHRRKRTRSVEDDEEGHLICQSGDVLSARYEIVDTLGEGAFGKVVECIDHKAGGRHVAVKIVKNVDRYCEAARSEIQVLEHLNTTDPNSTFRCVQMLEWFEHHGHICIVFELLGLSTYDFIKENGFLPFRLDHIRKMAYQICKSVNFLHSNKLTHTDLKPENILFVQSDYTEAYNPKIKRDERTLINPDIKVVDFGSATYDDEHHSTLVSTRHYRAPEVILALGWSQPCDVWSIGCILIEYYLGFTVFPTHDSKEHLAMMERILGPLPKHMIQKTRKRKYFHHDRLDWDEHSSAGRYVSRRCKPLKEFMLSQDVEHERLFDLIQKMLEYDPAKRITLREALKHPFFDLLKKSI
The settings on record: CLK1 (CMGC), IPI00915761.
Description: as §1

T2 sequence (Q9P2K8 whole entry): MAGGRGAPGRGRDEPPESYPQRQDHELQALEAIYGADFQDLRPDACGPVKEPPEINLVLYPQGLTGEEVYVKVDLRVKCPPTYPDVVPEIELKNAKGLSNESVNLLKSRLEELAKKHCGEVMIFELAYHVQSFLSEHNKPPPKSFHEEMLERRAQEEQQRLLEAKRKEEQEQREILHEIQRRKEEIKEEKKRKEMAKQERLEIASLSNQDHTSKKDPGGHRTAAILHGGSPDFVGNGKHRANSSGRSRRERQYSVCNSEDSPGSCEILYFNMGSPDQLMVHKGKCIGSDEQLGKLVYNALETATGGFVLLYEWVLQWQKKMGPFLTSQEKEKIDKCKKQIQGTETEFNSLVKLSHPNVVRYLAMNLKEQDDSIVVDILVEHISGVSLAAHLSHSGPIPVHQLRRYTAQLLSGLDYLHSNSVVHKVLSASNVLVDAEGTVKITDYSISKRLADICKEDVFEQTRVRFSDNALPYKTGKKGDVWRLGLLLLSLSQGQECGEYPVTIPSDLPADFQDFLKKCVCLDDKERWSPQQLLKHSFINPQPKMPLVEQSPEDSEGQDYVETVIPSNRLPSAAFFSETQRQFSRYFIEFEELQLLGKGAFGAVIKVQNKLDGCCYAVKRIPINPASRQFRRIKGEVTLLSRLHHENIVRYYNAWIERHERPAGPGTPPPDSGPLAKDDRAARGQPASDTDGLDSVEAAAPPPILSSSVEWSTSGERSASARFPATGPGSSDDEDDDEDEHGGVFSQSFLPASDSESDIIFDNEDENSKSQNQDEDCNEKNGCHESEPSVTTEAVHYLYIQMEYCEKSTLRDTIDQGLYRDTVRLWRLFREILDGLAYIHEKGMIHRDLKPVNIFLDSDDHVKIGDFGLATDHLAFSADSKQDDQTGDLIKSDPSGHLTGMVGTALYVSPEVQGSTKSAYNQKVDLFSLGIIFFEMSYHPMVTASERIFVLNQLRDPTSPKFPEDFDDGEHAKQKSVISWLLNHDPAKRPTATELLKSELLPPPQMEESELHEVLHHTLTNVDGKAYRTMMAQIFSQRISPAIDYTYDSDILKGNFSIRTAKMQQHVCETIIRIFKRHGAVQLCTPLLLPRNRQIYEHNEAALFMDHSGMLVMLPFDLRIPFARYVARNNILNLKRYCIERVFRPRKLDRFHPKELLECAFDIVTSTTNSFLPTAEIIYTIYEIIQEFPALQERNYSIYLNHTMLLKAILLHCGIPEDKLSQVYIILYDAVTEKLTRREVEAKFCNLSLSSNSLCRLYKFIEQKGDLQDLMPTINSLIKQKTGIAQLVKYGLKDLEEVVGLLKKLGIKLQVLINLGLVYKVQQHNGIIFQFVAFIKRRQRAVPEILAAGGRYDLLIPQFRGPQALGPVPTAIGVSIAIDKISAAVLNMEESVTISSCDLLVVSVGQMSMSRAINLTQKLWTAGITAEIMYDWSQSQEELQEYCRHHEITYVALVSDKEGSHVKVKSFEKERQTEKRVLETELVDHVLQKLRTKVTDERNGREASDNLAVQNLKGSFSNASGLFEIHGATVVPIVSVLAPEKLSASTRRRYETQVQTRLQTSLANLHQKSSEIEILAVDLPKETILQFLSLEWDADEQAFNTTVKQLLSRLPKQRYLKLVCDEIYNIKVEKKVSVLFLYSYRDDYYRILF

The IC50 is the concentration needed to halve the response being measured. A higher IC50 goes with lower potency. `C[C@H]1COCCN1c1nc(-c2ccc(NC(=O)N[C@H]3CCC[C@@H]3O)cc2)cc(-c2cc(F)ccc2S(C)(=O)=O)n1` [Example 76, 1-(4-(6-(5-fluoro-2-(methylsulfonyl)phenyl)-2-((S)-3-methylmorpholino)pyrimidin-4-yl)phenyl)-3-((1S,2S)-2-hydroxycyclopentyl)urea] had an IC50 in experiment [1] above 10 µM.

In the case of `C[C@H]1COCCN1c1nc(-c2ccc(NC(=O)NC3CC3)cc2)cc(-c2ccccc2S(C)(=O)=O)n1` [Example 4, (S)-1-cyclopropyl-3-(4-(2-(3-methylmorpholino)-6-(2-(methylsulfonyl)phenyl)pyrimidin-4-yl)phenyl)urea], the IC50 in experiment [2], in experiment [3], in experiment [4] and in experiment [1] was above 10 µM each time.

`C[C@H]1COCCN1c1cc(-c2ccccc2S(C)(=O)=O)nc(-c2ccc(NC(=O)NC3CC3)cc2)n1` [Example 6, (S)-1-cyclopropyl-3-(4-(4-(3-methylmorpholino)-6-(2-(methylsulfonyl)phenyl)pyrimidin-2-yl)phenyl)urea]: the IC50 in experiment [2] and in experiment [3] was above 10 µM in each case.

On to `C[C@H]1COCCN1c1cc(-c2ccccn2)nc(-c2ccc(NC(=O)NCCO)cc2)n1` [Example 43, (S)-1-(2-hydroxyethyl)-3-(4-(4-(3-methylmorpholino)-6-(pyridin-2-yl)pyrimidin-2-yl)phenyl)urea], for which the IC50 in experiment [2], in experiment [3], in experiment [4] and in experiment [5] was above 10 µM throughout.

For `C[C@H]1COCCN1c1nc(-c2ccc(NC(=O)NC3CC3)cc2)cc(-c2cccnc2S(C)(=O)=O)n1` [Example 46, (S)-1-cyclopropyl-3-(4-(2-(3-methylmorpholino)-6-(2-(methylsulfonyl)pyridin-3-yl)pyrimidin-4-yl)phenyl)urea], the IC50 in experiment [2], in experiment [4] and in experiment [5] was above 10 µM throughout.

Regarding `CCNC(=O)Nc1ccc(-c2cc(-c3ccccc3C#N)nc(N3CCOC[C@@H]3C)n2)cc1` [Example 8, (S)-1-(4-(6-(2-cyanophenyl)-2-(3-methylmorpholino)pyrimidin-4-yl)phenyl)-3-ethylurea], the IC50 in experiment [5] was above 10 µM.

Turning to `C[C@H]1COCCN1c1nc(-c2ccc(NC(=O)NC3CC3)cc2)cc(-c2cc(F)ccc2S(C)(=O)=O)n1` [Example 40, (S)-1-cyclopropyl-3-(4-(6-(5-fluoro-2-(methylsulfonyl)phenyl)-2-(3-methylmorpholino)pyrimidin-4-yl)phenyl)urea], the half-maximal inhibitory concentration (IC50) in experiment [4], in experiment [5] and in experiment [1] was above 10 µM each time.
